Assay results published in patent US12202835B2, “Substituted aromatic ring-linked dioxinoquinazolines and dioxinoquinolines as kinase inhibitors” (BEIJING SCITECH-MQ PHARMACEUTICALS LIMITED, priority 2018, dated 2025).

Tests used:
TRKA kinase = TRKA kinase (Homo sapiens (Human), UniProt P04629); assay: Assay of small molecular compounds for inhibiting the activity of TRKA kinase (LANCE TR-FRET); assay type: biochemical
Method in brief: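 TRKA (supplied as 2 nM 2× solution) was pre-reacted with compounds for 5 min at room temperature before a 4× ULight-TK peptide/ATP mix (400 nM/40 μM) started the 60-min dark reaction at 1% DMSO. After stop and 60-min detection, TR-FRET was read.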

c-MET kinase = c-MET kinase (Homo sapiens (Human), UniProt P08581); assay: Assay of small molecular compounds for inhibiting the activity of c-MET kinase (LANCE TR-FRET); assay type: biochemical; conditions: read-out: CMET IC50
c-MET kinase, sequence (P08581 25-1390): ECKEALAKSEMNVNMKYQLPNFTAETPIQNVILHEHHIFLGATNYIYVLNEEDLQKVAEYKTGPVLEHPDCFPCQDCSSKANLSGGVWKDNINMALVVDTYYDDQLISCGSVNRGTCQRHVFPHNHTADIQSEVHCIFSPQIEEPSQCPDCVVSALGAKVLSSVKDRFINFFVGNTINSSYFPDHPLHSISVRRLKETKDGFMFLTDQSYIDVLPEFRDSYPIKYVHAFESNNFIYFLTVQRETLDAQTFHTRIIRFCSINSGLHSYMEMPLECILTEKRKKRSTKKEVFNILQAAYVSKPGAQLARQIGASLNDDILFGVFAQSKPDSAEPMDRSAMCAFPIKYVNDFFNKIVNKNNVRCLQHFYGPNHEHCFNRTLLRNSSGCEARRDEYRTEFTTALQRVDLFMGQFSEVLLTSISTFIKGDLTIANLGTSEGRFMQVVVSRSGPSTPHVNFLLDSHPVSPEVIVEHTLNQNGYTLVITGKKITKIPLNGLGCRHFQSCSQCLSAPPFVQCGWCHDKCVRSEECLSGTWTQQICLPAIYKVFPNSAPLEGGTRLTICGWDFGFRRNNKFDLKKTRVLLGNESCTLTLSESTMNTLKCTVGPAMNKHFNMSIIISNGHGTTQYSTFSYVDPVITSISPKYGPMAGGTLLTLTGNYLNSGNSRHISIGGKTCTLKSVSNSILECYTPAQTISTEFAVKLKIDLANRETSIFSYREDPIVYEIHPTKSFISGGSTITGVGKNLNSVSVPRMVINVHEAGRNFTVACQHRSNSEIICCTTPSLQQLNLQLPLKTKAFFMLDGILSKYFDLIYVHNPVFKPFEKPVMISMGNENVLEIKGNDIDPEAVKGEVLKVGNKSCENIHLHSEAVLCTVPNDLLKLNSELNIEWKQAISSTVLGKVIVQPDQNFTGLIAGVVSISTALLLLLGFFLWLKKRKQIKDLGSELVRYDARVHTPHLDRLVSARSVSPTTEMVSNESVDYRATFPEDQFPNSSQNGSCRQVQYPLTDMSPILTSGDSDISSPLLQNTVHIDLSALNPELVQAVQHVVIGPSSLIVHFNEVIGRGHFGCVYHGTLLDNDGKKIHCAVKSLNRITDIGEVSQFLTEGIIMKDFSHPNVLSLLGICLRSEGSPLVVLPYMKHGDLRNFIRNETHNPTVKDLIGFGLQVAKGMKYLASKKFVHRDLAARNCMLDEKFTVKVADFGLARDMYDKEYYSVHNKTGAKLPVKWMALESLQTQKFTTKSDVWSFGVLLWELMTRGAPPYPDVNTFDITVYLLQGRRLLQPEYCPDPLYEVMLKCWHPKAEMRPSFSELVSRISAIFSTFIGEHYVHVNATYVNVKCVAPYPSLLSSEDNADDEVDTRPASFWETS
Method in brief: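 Eleven final concentrations from 2500 nM down to 0.042 nM, in 4% DMSO, were tested against human c-MET (2× stock 2 nM), with compound and enzyme premixed for 5 min. The phosphorylation reaction used 4× stock of 400 nM ULight-JAK-1 peptide and 40 μM ATP for 60 min at room temperature, then stop and detection steps. TR-FRET percent inhibition against positive and negative controls gave the IC50.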

MER kinase = MER kinase (Homo sapiens (Human), UniProt Q12866); assay: Assay of small molecular compounds for inhibiting the activity of MER kinase (LANCE TR-FRET); assay type: biochemical
MER kinase, sequence (Q12866 21-999): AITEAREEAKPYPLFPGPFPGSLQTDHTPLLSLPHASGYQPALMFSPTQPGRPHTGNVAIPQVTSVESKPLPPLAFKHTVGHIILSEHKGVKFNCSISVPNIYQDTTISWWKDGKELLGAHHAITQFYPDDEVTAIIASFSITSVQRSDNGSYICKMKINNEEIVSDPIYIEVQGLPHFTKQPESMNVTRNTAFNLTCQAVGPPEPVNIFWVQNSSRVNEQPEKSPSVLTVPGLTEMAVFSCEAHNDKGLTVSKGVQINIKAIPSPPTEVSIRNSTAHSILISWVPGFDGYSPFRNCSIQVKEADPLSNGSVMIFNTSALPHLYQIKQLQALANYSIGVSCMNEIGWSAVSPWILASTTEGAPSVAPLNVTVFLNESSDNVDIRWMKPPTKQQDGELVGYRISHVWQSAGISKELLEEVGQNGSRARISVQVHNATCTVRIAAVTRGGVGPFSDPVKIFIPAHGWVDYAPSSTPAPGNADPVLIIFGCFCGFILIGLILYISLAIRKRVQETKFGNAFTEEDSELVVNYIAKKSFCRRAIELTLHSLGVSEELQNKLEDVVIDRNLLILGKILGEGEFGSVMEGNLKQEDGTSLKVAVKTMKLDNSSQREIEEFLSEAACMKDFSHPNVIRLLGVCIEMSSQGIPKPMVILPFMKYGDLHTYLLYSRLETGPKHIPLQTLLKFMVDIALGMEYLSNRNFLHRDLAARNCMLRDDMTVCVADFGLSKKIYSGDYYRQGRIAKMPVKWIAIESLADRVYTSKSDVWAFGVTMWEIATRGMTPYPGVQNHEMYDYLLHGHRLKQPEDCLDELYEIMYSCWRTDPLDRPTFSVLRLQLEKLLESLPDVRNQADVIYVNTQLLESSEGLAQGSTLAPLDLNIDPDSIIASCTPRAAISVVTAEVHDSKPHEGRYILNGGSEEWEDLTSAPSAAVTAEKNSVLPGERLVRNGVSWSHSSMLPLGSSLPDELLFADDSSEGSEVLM
Method in brief: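 LANCE TR-FRET readout of ULight-poly GT phosphorylation by MER kinase; compound final range 0.042-2500 nM, 3-fold steps, 5 min enzyme preincubation. Reaction 60 min at room temperature in the dark with substrate/ATP (4× at 200 nM/20 μM), 1% DMSO, then stopped and developed 60 min; IC50 by curve fit.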

Ba/F3 LMNA-NTRK1 cells = assay: Assay for inhibiting the proliferation of Ba/F3 LMNA-NTRK1 cells (CCK-8); assay type: cell-based; conditions: Mus musculus, BaF3
Protocol: In particular, the method of the assay of small molecular compounds for inhibiting cell proliferation is as follows: • 1. Cells cultured to a logarithmic growth phase (adherent cells need to be digested with trypsin and neutralized) were taken, pipetted evenly, transferred to a 15 mL centrifuge tube, and centrifuged at 1000 rpm at room temperature for 4 minutes; • 2. The supernatant was discarded; 5 mL of complete medium was added and pipetted evenly; 10 μL of cell suspension was taken out, mixed well with 10 μL of 0.4% trypan blue, and counted under a cell counter; the proportion of living cells was ensured to be above 90%; • 3. 80 μL of cell suspension per well was seeded into a 96-well plate according to the conditions shown in the attached table, and cultured overnight; in the outer 36 wells of the 96-well plate, no cells were added but only sterile water was added; only the inner 60 wells were used for cell assay and control; • 4. […] 20 μL of the corresponding compounds with different concentration gradients were added to each well of assay wells of the 96-well plate; 20 μL of complete medium was added to positive and negative control wells and shaken well; and the final concentration of DMSO in each well was 0.25%; • 6. After 72 hours of incubation, 10 μL of CCK-8 reagent was added to each well and further incubated at 37° C. for 1-2 hours; and the OD value was read at 450 nm; • 7. Cell survival rate (%)=[(As−Ab)/(Ac−Ab)]*100% • As: Assay well (medium containing cells, CCK-8, compound), • Ac: Control well (medium containing cells, CCK-8), • Ab: Blank well (CCK-8, medium without cell and compound), • 8. The values were imported into Graphpad Prism 5 software for IC50 calculation.

Ba/F3-AXL cells = assay: Assay for inhibiting the proliferation of Ba/F3-AXL cells (CCK-8); assay type: cell-based; conditions: 72 hours of incubation, medium with 100 ng/mL hGas6, CCK-8
Protocol: The values were then imported into Graphpad Prism 5 software for curve fitting, and IC50 was calculated.

VEGFR-2 kinase = VEGFR-2 kinase (Homo sapiens (Human), UniProt P35968); assay: Assay of small molecular compounds for inhibiting the activity of VEGFR-2 kinase (LANCE TR-FRET); assay type: biochemical; conditions: read-out: VEGFR2 IC50
VEGFR-2 kinase, sequence (P35968 20-1356): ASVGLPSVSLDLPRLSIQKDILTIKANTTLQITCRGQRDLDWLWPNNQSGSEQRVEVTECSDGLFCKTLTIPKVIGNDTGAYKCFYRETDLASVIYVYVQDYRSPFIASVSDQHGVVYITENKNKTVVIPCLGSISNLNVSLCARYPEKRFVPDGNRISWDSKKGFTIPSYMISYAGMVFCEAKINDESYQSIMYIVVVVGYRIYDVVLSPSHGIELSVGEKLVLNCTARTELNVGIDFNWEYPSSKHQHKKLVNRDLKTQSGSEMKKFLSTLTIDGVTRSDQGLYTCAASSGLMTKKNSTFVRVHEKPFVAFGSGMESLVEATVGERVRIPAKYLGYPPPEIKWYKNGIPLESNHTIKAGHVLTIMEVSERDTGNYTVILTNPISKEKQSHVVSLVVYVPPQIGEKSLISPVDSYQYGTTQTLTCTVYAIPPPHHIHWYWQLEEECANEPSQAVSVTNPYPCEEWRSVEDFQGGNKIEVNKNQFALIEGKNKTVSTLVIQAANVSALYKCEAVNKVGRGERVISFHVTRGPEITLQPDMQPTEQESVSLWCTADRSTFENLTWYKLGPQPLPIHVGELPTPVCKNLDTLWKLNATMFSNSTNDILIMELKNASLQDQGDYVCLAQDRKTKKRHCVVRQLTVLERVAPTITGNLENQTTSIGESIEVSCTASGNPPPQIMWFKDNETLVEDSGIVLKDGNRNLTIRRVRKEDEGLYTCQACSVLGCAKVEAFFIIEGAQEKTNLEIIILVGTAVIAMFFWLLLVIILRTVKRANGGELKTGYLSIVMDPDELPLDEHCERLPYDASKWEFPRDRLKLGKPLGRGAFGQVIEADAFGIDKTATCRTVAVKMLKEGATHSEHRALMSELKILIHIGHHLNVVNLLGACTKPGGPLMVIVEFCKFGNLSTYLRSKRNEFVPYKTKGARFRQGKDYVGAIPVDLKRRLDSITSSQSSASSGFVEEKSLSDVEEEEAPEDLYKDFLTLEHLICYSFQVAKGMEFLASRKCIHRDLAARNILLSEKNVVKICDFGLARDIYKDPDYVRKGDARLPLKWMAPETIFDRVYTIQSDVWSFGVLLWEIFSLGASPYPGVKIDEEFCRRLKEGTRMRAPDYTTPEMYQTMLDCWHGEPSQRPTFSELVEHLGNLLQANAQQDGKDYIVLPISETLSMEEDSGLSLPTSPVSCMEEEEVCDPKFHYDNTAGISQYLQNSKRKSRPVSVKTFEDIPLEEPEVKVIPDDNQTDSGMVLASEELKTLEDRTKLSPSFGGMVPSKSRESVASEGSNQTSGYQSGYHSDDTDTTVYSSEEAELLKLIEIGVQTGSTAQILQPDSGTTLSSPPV
Protocol: The assay is based on the LANCE TR-FRET technology of Perkin Elmer Inc., and the assay method is as follows: • 1. Dilution of compounds: a total of 11 concentrations were obtained using a 3-fold gradient dilution from the highest concentration of 2500 nM (the maximum final concentration of the drug used in this assay was 2500 nM, and the minimum final concentration was 0.042 nM). • 2. 2.5 μL of the gradient-diluted compounds were taken with a transfer pipette to a 384-well plate. • 3. Addition of enzyme: 5 μL of 2×VEGFR2 kinase solution (with a concentration of 0.5 nM) was taken with a transfer pipette to the corresponding reaction well of the 384-well plate, mixed well and pre-reacted at room temperature for 30 minutes. • 4. 2.5 μL 4× Ultra ULight™-JAK-1 (Tyr1023) Peptide (with a concentration of 200 nM)/ATP (with a concentration of 40 μM) mixture was taken with a transfer pipette to the corresponding reaction well of the 384-well plate. • 5. Negative control: 2.5 μL/well 4× substrate/ATP mixture and 7.5 μL 1× Kinase Assay Buffer were added to the wells of the 384-well plate. • 6. Positive control: 2.5 μL/well 4× substrate/ATP mixture, 2.5 μL/well 1× Kinase Assay Buffer containing 16% DMSO, and 5 μL/well 2×VEGFR-2 kinase solution were added to the 384-well plate. The final concentration of DMSO in the reaction system was 4%. • 7. The mixture was mixed well and then centrifuged and reacted at room temperature in dark for 60 min. • 8. Termination of the enzymatic reaction: 5 μL of 4× stop solution was taken with a transfer pipette to the wells of the 384-well plate, mixed and then centrifuged, and reacted at room temperature for 5 min. • 9. Development of the reaction: 5 μL of 4× detection solution was taken with a transfer pipette to the wells of the 384-well plate for color development, and the mixture was mixed and then centrifuged and reacted at room temperature for 60 min. • 10. The 384-well plate was placed into the Envision plate reader and the signal was detected using the appropriate program. • 11. Analysis and processing of the raw data: The drug concentrations and the corresponding inhibition rates were input into GraphPad Prism5 for calculation, and the inhibition rate of the compounds were calculated as follows: inhibition rate (%)=(reading of positive well−reading of experimental well)/(reading of positive control well−reading of negative control well)×100%. Processing with GraphPad Prism5 software yielded the corresponding IC50 values (the concentration of the compound at which 50% of the highest inhibition of the enzyme is achieved).

TRKA kinase, sequence (P04629 33-796): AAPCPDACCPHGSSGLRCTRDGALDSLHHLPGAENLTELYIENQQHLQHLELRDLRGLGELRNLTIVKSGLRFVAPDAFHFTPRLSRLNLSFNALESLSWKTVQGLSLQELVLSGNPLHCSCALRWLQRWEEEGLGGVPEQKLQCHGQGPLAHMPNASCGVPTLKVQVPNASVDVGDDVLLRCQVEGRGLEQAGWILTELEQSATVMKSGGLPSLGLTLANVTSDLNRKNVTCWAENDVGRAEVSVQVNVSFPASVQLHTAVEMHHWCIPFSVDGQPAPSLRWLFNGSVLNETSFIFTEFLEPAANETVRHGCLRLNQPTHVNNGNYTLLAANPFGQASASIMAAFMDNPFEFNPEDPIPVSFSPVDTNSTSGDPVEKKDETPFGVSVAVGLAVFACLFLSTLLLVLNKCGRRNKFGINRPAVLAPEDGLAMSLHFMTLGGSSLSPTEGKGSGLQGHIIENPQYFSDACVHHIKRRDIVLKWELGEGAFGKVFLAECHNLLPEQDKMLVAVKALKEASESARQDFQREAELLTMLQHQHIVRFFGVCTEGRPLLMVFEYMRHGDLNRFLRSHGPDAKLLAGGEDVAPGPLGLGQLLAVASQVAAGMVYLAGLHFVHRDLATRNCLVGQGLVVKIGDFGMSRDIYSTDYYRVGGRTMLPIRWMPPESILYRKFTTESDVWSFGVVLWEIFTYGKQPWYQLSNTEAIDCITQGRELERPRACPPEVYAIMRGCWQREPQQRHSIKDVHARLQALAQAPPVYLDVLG

Question: What does the source list for `COc1cn(-c2ccc(F)cc2C)nc1C(=O)Nc1ccc(Oc2ccnc3cc(OC)c4c(c23)OCCO4)c(F)c1` [Example 24, 1-(4-fluoro-2-methylphenyl)-N-(3-fluoro-4-((5-methoxy-2,3-dihydro-[1,4]dioxino[2,3-f]quinolin-10-yl)oxy)phenyl)-4-methoxy-1H-pyrazole-3-carboxamide]?
Answer: IC50 (TRKA kinase): < 50 nM; IC50 (c-MET kinase): 50 to 500 nM; IC50 (MER kinase): 50 to 500 nM; IC50 (Ba/F3 LMNA-NTRK1 cells): < 50 nM

Question: `Cc1cc(F)ccc1-n1ccc(C(=O)Nc2ccc(Oc3ccnc4cc(OCCCN5CCOCC5)c5c(c34)OCCO5)c(F)c2)n1` [Example 26, 1-(4-fluoro-2-methylphenyl)-N-(3-fluoro-4-((5-(3-morpholinopropoxy)-2,3-dihydro-[1,4]dioxino[2,3-f]quinolin-10-yl)oxy)phenyl)-1H-pyrazole-3-carboxamide] was tested. Which IC50 (TRKA kinase) did it give?
Answer: < 50 nM

Question: What about the IC50 (c-MET kinase) of the same compound?
Answer: ≤ 50 nM

Question: And the IC50 (MER kinase)?
Answer: 50 to 500 nM

Question: What about the IC50 (Ba/F3-AXL cells) of the same compound?
Answer: < 50 nM

Question: What about the IC50 (Ba/F3 LMNA-NTRK1 cells) of the same compound?
Answer: < 50 nM

Question: How did the IC50 (TRKA kinase) turn out when `CCOc1cn(-c2ccc(F)cc2C)nc1C(=O)Nc1ccc(Oc2ccnc3cc(OCCCN4CCOCC4)c4c(c23)OCCO4)c(F)c1` [Example 28, 1-(4-fluoro-2-methylphenyl)-N-(3-fluoro-4-((5-(3-morpholinopropoxy)-2,3-dihydro-[1,4]dioxino[2,3-f]quinolin-10-yl)oxy)phenyl)-4-ethoxy-1H-pyrazole-3-carboxamide] was run?
Answer: < 50 nM

Question: And the IC50 (c-MET kinase)?
Answer: ≤ 50 nM

Question: What about the IC50 (MER kinase) of the same compound?
Answer: ≤ 50 nM

Question: And the IC50 (Ba/F3-AXL cells)?
Answer: < 50 nM

Question: And the IC50 (Ba/F3 LMNA-NTRK1 cells)?
Answer: < 50 nM

Question: Which results are given for `CC(C)n1cc(C(=O)Nc2ccc(Oc3ccnc4cc(OCC#N)c5c(c34)OCCO5)c(F)c2)c(=O)n(-c2ccc(F)cc2)c1=O` [Example 81, N-(3-fluoro-4-((5-(cyanomethoxy)-2,3-dihydro-[1,4]dioxino[2,3-f]quinolin-10-yl)oxy)phenyl)-3-(4-fluorophenyl)-1-isopropyl-2,4-dioxo-1,2,3,4-tetrahydropyrimidine-5-carboxamide]?
Answer: IC50 (TRKA kinase): 500 to 5000 nM; IC50 (c-MET kinase): 50 to 500 nM; IC50 (MER kinase): ≤ 50 nM; IC50 (Ba/F3-AXL cells): < 50 nM

Question: For `CC(C)n1cc(C(=O)Nc2ccc(Oc3ccnc4cc(OCCCC#N)c5c(c34)OCCO5)c(F)c2)c(=O)n(-c2ccc(F)cc2)c1=O` [Example 82, N-(3-fluoro-4-((5-(3-cyanopropoxy)-2,3-dihydro-[1,4]dioxino[2,3-f]quinolin-10-yl)oxy)phenyl)-3-(4-fluorophenyl)-1-isopropyl-2,4-dioxo-1,2,3,4-tetrahydropyrimidine-5-carboxamide], which IC50 (TRKA kinase) is on record?
Answer: 50 to 500 nM

Question: What about the IC50 (c-MET kinase) of the same compound?
Answer: 50 to 500 nM

Question: What about the IC50 (MER kinase) of the same compound?
Answer: ≤ 50 nM

Question: What about the IC50 (Ba/F3-AXL cells) of the same compound?
Answer: < 50 nM

Question: Which IC50 (c-MET kinase) does the source give for `CC(C)n1cc(C(=O)Nc2ccc(Oc3ccnc4cc(OCCCCCCN(C)C)c5c(c34)OCCO5)c(F)c2)c(=O)n(-c2ccc(F)cc2)c1=O` [Example 85, N-(3-fluoro-4-((5-((6-dimethylamino)hexyloxy)-2,3-dihydro-[1,4]dioxino[2,3-f]quinolin-10-yl)oxy)phenyl)-3-(4-fluorophenyl)-1-isopropyl-2,4-dioxo-1,2,3,4-tetrahydropyrimidine-5-carboxamide] here?
Answer: 50 to 500 nM

Question: And the IC50 (VEGFR-2 kinase)?
Answer: 50 to 500 nM

Question: And the IC50 (Ba/F3-AXL cells)?
Answer: < 50 nM

Question: What about the IC50 (Ba/F3 LMNA-NTRK1 cells) of the same compound?
Answer: < 50 nM

Question: `CCOc1cc2nccc(Oc3ccc(NC(=O)c4cn(C(C)C)c(=O)n(-c5ccc(F)cc5)c4=O)cc3F)c2c2c1OCCO2` [Example 87, N-(3-fluoro-4-((5-ethoxy-2,3-dihydro-[1,4]dioxino[2,3-f]quinolin-10-yl)oxy)phenyl)-3-(4-fluorophenyl)-1-isopropyl-2,4-dioxo-1,2,3,4-tetrahydropyrimidine-5-carboxamide] was tested. Which IC50 (TRKA kinase) did it give?
Answer: 50 to 500 nM

Question: And the IC50 (c-MET kinase)?
Answer: 50 to 500 nM

Question: And the IC50 (MER kinase)?
Answer: ≤ 50 nM

Question: What about the IC50 (Ba/F3-AXL cells) of the same compound?
Answer: < 50 nM

Question: For `COc1cc2nccc(Oc3ccc(NC(=O)c4cn(C(C)C)c(=O)n(-c5cccc(F)c5)c4=O)cc3F)c2c2c1OCCO2` [Example 109, N-(3-fluoro-4-((5-methoxy-2,3-dihydro-[1,4]dioxino[2,3-f]quinolin-10-yl)oxy)phenyl)-3-(3-fluorophenyl)-1-isopropyl-2,4-dioxo-1,2,3,4-tetrahydropyrimidine-5-carboxamide], which IC50 (TRKA kinase) is on record?
Answer: 500 to 5000 nM

Question: What about the IC50 (c-MET kinase) of the same compound?
Answer: ≤ 50 nM

Question: And the IC50 (MER kinase)?
Answer: ≤ 50 nM

Question: And the IC50 (Ba/F3-AXL cells)?
Answer: < 50 nM

Question: Which results are given for `CCOc1ccn(C2CCCCC2)c(=O)c1C(=O)Nc1ccc(Oc2ccnc3cc(OC)c4c(c23)OCCO4)c(F)c1` [Example 119, 1-cyclohexyl-4-ethoxy-N-(3-fluoro-4-((5-methoxy-2,3-dihydro-[1,4]dioxino[2,3-f]quinolin-1 0-yl)oxy)phenyl)-2-oxo-1,2-dihydropyridine-3-carboxamide]?
Answer: IC50 (TRKA kinase): > 5000 nM; IC50 (MER kinase): 500 to 5000 nM; IC50 (VEGFR-2 kinase): > 5000 nM

Question: `COc1cc2nccc(Oc3ccc(NC(=O)c4cccn(-c5ccc(F)cc5)c4=O)c(Cl)c3)c2c2c1OCCO2` [Example 123, N-(2-chloro-4-((5-methoxy-2,3-dihydro-[1,4]dioxino[2,3-f]quinolin-10-yl)oxy)phenyl)-1-(4-fluorophenyl)-2-oxo-1,2-dihydropyridine-3-carboxamide] was tested. Which IC50 (TRKA kinase) did it give?
Answer: < 50 nM

Question: What about the IC50 (MER kinase) of the same compound?
Answer: ≤ 50 nM

Question: And the IC50 (VEGFR-2 kinase)?
Answer: > 5000 nM

Question: And the IC50 (Ba/F3-AXL cells)?
Answer: < 50 nM

Question: And the IC50 (Ba/F3 LMNA-NTRK1 cells)?
Answer: < 50 nM

Question: Which IC50 (TRKA kinase) does the source give for `N#CCCCOc1cc2nccc(Oc3ccc(NC(=O)c4cccn(-c5ccc(F)cc5)c4=O)c(Cl)c3)c2c2c1OCCO2` [Example 131, N-(2-chloro-4-((5-(3-cyanopropoxy)-2,3-dihydro-[1,4]dioxino[2,3-f]quinolin-10-yl)oxy)phenyl)-1-(4-fluorophenyl)-2-oxo-1,2-dihydropyridine-3-carboxamide] here?
Answer: < 50 nM

Question: What about the IC50 (c-MET kinase) of the same compound?
Answer: ≤ 50 nM

Question: And the IC50 (MER kinase)?
Answer: 50 to 500 nM

Question: What about the IC50 (Ba/F3 LMNA-NTRK1 cells) of the same compound?
Answer: < 50 nM

Question: For `COc1ccn(-c2ccc(F)cc2)c(=O)c1C(=O)Nc1ccc(Oc2ccnc3cc(OCCCN4CCOCC4)c4c(c23)OCCO4)cc1Cl` [Example 144, N-(2-chloro-4-((5-(3-morpholinopropoxy)-2,3-dihydro-[1,4]dioxino[2,3-f]quinolin-10-yl)oxy)phenyl)-1-(4-fluorophenyl)-4-methoxy-2-oxo-1,2-dihydropyridine-3-carboxamide], which IC50 (TRKA kinase) is on record?
Answer: < 50 nM

Question: And the IC50 (c-MET kinase)?
Answer: ≤ 50 nM

Question: And the IC50 (VEGFR-2 kinase)?
Answer: 50 to 500 nM

Question: What about the IC50 (Ba/F3 LMNA-NTRK1 cells) of the same compound?
Answer: < 50 nM
